What was measured:
[1] = test system: TPA-induced AP-1 activity; test: Example 15: anti-AP-1 activity, Str-AP1-CAT in HeLa cells; assay type: cell-based; settings: 1,25-dihydroxyvitamin D3 alone, 10^−12 to 10^−7 M
Experimental: HeLa cells were transfected with 1 μg of Str-AP1-CAT using LIPOFECTAMINE according to the method described by Nagpal et al. in J. Biol. Chem. 270:923 (1995). Transfected cells were treated with AGN 193109 alone (10^−9 to 10^−7 M), 1,25-dihydroxyvitamin D3 alone (10^−12 to 10^−7 M) or 1,25-dihydroxyvitamin D3 (10^−12 to 10^−7 M) in the presence of 10^−8 M AGN 193109.

[2] = test system: 1,25-dihydroxyvitamin D3-dependent gene expression; test: Example 14: 1,25-dihydroxyvitamin D3 transactivation, MTV-VDRE-Luc in HeLa cells; assay type: cell-based; settings: 1,25-dihydroxyvitamin D3 alone
Experimental: Hela cells were transfected using the cationic liposome-mediated transfection procedure described by Feigner et al. in Proc. Natl. Acad. Sci. USA 84:7413 (1987). 5×10^4 cells were plated in 12-well multiwell plates and grown in DMEM supplemented with 10% FBS. Cells were cotransfected in serum-free medium using 2 μg/well of LIPOFECTAMINE reagent (Life Technologies, Inc.) with 0.7 μg of the reporter plasmid MTV-VDRE-Luc, containing two copies of the 1,25-dihydroxyvitamin D3 response element [NT] ID NO:4) from the mouse osteopontin gene (Ferrara et al. J. Biol. Chem. 269:2971 (1994)) ligated into the reporter plasmid ΔMTV-Luc (Heyman et al. in Cell 68:397 (1992)), and 0.3 μg of the plasmid pGEM3Z (Pharmacia, Inc.) as carrier DNA to bring the final concentration of DNA to 1.0 μg per well. After six hours of transfection, cells were fed with growth medium containing charcoal extracted FBS at a final concentration of 10%. […] Luciferase activity was measured as described above. This experimental system allowed a convenient method of monitoring and quantitating 1,25-dihydroxyvitamin D3-dependent gene expression.

[3] = Example 4: retinoid-induced hypertriglyceridemia (serum triglycerides); assay type: in vivo, rats; settings: group C: AGN 191659 3.7 mg/kg oral alone
Experimental: Male Fischer rats (6-7 weeks old, n=5) were treated by intragastric intubation with corn oil (vehicle), AGN 191659, AGN 193109 or a combination of AGN 191659 and AGN 193109. AGN 191659 and AGN 193109 were given as fine suspensions in corn oil.
Serum was separated from blood by low speed centrifugation. Total serum triglycerides (triglycerides plus glycerol) were measured with a standard spectrophotometric endpoint assay available commercially as a kit and adapted to a 96-well plate format. Serum triglyceride levels are expressed as the mean±SD. Means were compared statistically by one-way analysis of variance followed by Dunnett's test if significant differences were found. Differences were considered significant at P<0.05.

[4] = target: T1, RARγ (Homo sapiens, UniProt P13631); test: [3H]-ATRA displacement assay, baculovirus expressed receptor; assay type: binding; parameters: made in house; host or cells: baculovirus expression system; settings: Table 12; relative affinity, competition of 3H-ATRA binding, Cheng-Prussof equation
T1 sequence (P13631 1-454): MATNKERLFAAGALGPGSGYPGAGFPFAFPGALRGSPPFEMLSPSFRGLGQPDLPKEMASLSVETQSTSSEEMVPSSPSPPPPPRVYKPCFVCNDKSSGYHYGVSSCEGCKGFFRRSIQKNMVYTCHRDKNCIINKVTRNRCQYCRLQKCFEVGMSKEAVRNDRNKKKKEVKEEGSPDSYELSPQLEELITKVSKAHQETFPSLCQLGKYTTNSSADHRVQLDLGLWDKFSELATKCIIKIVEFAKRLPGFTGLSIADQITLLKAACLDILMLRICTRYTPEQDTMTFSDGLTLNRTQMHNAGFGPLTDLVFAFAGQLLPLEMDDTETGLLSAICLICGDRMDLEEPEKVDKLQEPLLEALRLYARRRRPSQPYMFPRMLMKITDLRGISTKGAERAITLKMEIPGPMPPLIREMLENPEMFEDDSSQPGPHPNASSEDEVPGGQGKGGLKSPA

[5] = test system: RAR-γ-VP-16; test: Example 12: assay for retinoid negative hormones, CV-1 cells; assay type: cell-based; settings: 10^−9 to 10^−6 M, 18 hours, no agonist
[6] = test system: hairless mice; test: Example 1: skin irritation by topical agonist, topical antagonist; assay type: in vivo
Experimental: More particularly skin irritation was measured on a semiquantitative scale by the daily subjective evaluation of skin flaking and abrasions. A single number, the topical irritation score, summarizes the skin irritation induced in an animal during the course of an experiment. The topical irritation score is calculated as follows. The topical irritation score is the algebraic sum of a composite flaking score and a composite abrasion score. The composite scores range from 0-9 and 0-8 for flaking and abrasions, respectively, and take into account the maximum severity, the time of onset, and the average severity of the flaking and abrasions observed.
The severity of flaking is scored on a 5-point scale and the severity of abrasions is scored on a 4-point scale, with higher scores reflecting greater severity. The maximum severity component of the composite scores would be the highest daily severity score assigned to a given animal during the course of observation.
For the time of onset component of the composite score, a score ranging from 0 to 4 is assigned as follows:
The average severity component of the composite score is the sum of the daily flaking or abrasion scores divided by the number of observation days.
To calculate the composite flaking and abrasion scores, the average severity and time of onset scores are summed and divided by 2. The result is added to the maximal severity score. The composite flaking and abrasion scores are then summed to give the overall topical irritation score. Each animal receives a topical irritation score, and the values are expressed as the mean±SD of the individual scores of a group of animals. Values are rounded to the nearest integer.
Female hairless mice [Crl:SKH1-hrBR] […] Treatments are applied to the dorsal skin in a total volume of 4 ml/kg (˜0.1 ml). Mice were observed daily and scored for flaking and abrasions up to and including 3 days after the last treatment, i.e., day 8.

Question: For `C=C1/C(=C\C=C2/CCC[C@]3(C)[C@@H]([C@H](C)CCCC(C)(C)O)CC[C@@H]23)C[C@@H](O)C[C@@H]1O` [1,25-dihydroxyvitamin D3, reference compound], which “repression of TPA-stimulated activity” value [1] is on record?
Answer: repressed TPA-stimulated activity only in the 10^−8 and 10^−7 M concentration range

Question: And the “concentration required to produce a luciferase expression of approximately 2,000 rlu” value [2]?
Answer: 10^−8 M

Question: With `C/C(=C\c1ccc(C(=O)O)s1)c1cc2c(cc1C)C(C)(C)CCC2(C)C` [AGN 191659, 5-[(E)-2-(5,6,7,8-tetrahydro-3,5,5,8,8-pentamethylnaphthalen-2-yl)propen-1-yl]-2-thiophencarboxylic acid, reference compound] as the molecule, how does the “Serum Triglycerides” value [3] read?
Answer: 122.5 ± 27.6 mg/dL

Question: For `CC1(C)CC=C(c2cccs2)c2cc(C#Cc3ccc(C(=O)O)cc3)ccc21` [Compound 34a, 4-[(5,6-dihydro-5,5-dimethyl-8-(2-thienyl)-2-naphthalenyl)ethynyl]benzoic acid], which Kd [4] is on record?
Answer: 52 nM

Question: What about the “RAR-γ-VP-16 constitutive activity (negative hormone activity)” value [5] of the same molecule?
Answer: did not repress RAR-γ-VP-16 activity

Question: Which results are given for `Cc1ccc(C2=CCSc3ccc(C#Cc4ccc(C(=O)O)cc4)cc32)cc1` [Compound 50, 4-[2-(6-(4-(4-methylphenyl)-(2H)-1-benzothiopyranyl))ethynyl]-benzoic acid]?
Answer: Kd [4]: 30 nM; RAR-γ-VP-16 constitutive activity (negative hormone activity) [5]: dose dependent repression of RAR-γ-VP-16 constitutive activity

Question: Which “Topical Irritation Score” value ([6]; group C: AGN 192869 0.06 mg/kg/d + AGN 191183 0.025 mg/kg/d topical, molar ratio 2:1) does the source give for `CC1(C)CC=C(c2ccccc2)c2cc(C#Cc3ccc(C(=O)O)cc3)ccc21` [Compound 60a, 4-[(5,6-dihydro-5,5-dimethyl-8-phenyl-2-naphthalenyl)ethynyl]benzoic acid] here?
Answer: 5 ± 2

Question: And the “Topical Irritation Score” value ([6]; group D: AGN 192869 0.30 mg/kg/d + AGN 191183 0.025 mg/kg/d topical, molar ratio 10:1)?
Answer: 2 ± 1

Question: What about the “Topical Irritation Score” value ([6]; group E: AGN 192869 1.5 mg/kg/d + AGN 191183 0.025 mg/kg/d topical, molar ratio 50:1) of the same molecule?
Answer: 1 ± 0

Question: And the “Topical Irritation Score” value ([6]; group F: AGN 192869 1.5 mg/kg/d topical alone)?
Answer: 0 ± 0

— patent US6469028B1, “Synthesis and use of retinoid compounds having negative hormone and/or anatgonist activities” (Allergan, Inc., priority 1995, dated 2002)
